Key:
[1] = Excretion (0-168h) of aliskiren in urine following oral administration of [14C] aliskiren hemifumarate at 3 mg.Kg-1 level in marmoset; assay type: ADME, organism-based, Callithrix jacchus; details: in vivo
[2] = Oral clearance of SPP100 following single oral dose of SPP100 150 mg capsule studied in healthy human; assay type: ADME, organism-based; details: plasma
[3] = Mean excretion of radioactivity (72-96h) in urine and faeces following single intravenous dose of 10 mg.Kg-1 [14C] aliskiren hemifumarate in rat; assay type: ADME, organism-based, Albino HAN:WIST, Urine/Feces; details: in vivo
[4] = Excretion of radioactivity (24-48h) in urine following single oral dose of 100 mg.Kg-1 [14C] aliskiren hemifumarate in rat; assay type: ADME, organism-based, Albino HAN:WIST; details: in vivo
[5] = Mean excretion of radioactivity (0-24h) in urine and faeces following single oral dose of 500 mg.Kg-1 [14C] aliskiren hemifumarate in mouse; assay type: ADME, organism-based, TgRasH2, Urine/Feces; details: in vivo
Cytochrome P450 2E1 = Cytochrome P450 2E1 (Homo sapiens, UniProt P05181); experiment: Activity of human recombinant CYP2E1 assessed as enzyme contribution (% total relative CL) towards [14C]SPP100 hemifumarate metabolism in human liver microsome; assay type: ADME; details: microsomes
Chain of Cytochrome P450 2E1 (P05181 whole entry): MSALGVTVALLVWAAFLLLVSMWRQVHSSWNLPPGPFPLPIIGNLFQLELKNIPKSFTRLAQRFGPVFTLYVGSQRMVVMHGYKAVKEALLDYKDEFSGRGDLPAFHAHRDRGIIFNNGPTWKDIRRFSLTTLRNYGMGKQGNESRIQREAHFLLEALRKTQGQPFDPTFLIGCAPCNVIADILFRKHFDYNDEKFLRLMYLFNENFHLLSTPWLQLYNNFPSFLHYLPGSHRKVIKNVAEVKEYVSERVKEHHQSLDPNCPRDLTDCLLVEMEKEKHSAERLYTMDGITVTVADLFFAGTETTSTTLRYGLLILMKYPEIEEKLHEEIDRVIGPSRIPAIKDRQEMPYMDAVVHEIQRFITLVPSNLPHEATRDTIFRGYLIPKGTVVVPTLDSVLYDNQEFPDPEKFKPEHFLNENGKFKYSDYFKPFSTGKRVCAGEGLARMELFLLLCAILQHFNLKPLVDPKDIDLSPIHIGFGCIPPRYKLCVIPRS

Cytochrome P450 3A5 = Cytochrome P450 3A5 (Homo sapiens, UniProt P20815); experiment: Metabolic clearance (ul.min.nmol-1 CYP) of aliskiren hemifumarate for CYP3A5 was determined in human liver microsome incubated with [14C]SPP100 hemifumarate; assay type: ADME; details: microsomes
Chain of Cytochrome P450 3A5 (P20815 whole entry): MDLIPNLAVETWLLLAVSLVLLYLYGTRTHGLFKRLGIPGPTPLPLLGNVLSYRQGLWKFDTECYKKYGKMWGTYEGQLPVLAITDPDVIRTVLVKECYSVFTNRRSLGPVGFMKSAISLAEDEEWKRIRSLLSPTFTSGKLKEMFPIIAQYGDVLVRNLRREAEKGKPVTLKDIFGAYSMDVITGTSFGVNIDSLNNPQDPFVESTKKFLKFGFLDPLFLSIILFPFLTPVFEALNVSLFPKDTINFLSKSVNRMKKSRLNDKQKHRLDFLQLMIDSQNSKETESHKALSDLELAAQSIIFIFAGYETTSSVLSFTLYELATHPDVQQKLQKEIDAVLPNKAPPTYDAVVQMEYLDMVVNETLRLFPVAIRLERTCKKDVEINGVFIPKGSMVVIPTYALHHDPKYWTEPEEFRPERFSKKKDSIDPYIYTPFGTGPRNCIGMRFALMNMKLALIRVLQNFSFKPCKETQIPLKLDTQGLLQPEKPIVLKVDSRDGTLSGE

[6] = Absorption (0-168h) of total radioactivity following single oral administration of [14C] aliskiren hemifumarate at 3 mg.Kg-1 level in marmoset; assay type: ADME, organism-based, Callithrix jacchus, Plasma; details: in vivo
[7] = Excretion of radioactivity (24-48h) in faeces following single oral dose of 500 mg.Kg-1 [14C] aliskiren hemifumarate in mouse; assay type: ADME, organism-based, TgRasH2, Feces; details: in vivo
[8] = Excretion of radioactivity (0-72h) in urine following single intravenous dose of 10 mg.Kg-1 [14C] aliskiren hemifumarate in mouse; assay type: ADME, organism-based, TgRasH2; details: in vivo
[9] = Concentration of radioactivity in the kidney medulla following repeated oral administration of [14C] aliskiren hemifumarate at 100 mg.Kg-1 level studied at 2h after 10th dose in rat; assay type: ADME, organism-based, Albino HAN:WIST, Renal medulla; details: in vivo
Cytochrome P450 2J2 = target: T1, Cytochrome P450 2J2 (Homo sapiens, UniProt P51589); experiment: Metabolic clearance (ul.min.nmol-1 CYP) of aliskiren hemifumarate for CYP2J2 was determined in human liver microsome incubated with [14C]SPP100 hemifumarate; assay type: ADME; details: microsomes
T1 sequence (P51589 whole entry): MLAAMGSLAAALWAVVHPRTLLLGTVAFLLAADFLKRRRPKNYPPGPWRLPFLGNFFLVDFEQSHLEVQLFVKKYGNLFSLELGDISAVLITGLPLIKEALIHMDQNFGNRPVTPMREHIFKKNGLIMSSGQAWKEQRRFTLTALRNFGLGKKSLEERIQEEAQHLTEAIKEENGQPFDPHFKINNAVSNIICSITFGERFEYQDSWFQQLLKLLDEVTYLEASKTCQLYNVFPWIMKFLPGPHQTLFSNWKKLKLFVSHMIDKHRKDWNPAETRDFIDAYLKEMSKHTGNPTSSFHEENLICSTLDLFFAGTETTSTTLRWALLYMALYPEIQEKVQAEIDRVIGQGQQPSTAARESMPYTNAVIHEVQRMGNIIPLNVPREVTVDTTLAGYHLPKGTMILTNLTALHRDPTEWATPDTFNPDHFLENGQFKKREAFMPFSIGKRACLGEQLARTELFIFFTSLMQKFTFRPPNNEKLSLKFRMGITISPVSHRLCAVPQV

[10] = AUC(0-24h) of aliskiren hemifumarate following 2 week oral dosing of aliskiren hemifumarate at 100 mg.Kg-1 level studied on day 14 in male Callithrix jacchus; assay type: ADME, organism-based; details: marmoset, plasma
[11] = Plasma clearance (0-96h) of unlabeled aliskiren hemifumarate following intravenous administration of aliskiren hemifumarate at 10 mg.Kg-1 level in rat; assay type: ADME, organism-based, Albino HAN:WIST; details: in vivo
[12] = Tmax of aliskiren hemifumarate following 8 day once-daily dosing of SPP100B oral solution at 40 mg level studied on day 8 in men; assay type: ADME, organism-based; details: male, human, plasma
[13] = Effect of 2 week oral dosing of aliskiren hemifumarate at 100 mg.Kg-1 level on plasma creatinine level in female Callithrix jacchus; assay type: toxicity, organism-based; details: marmoset, 336 h
[14] = Effect of 4 week oral dietary dosing of aliskiren hemifumarate at 1000 mg.Kg-1 level on spermatogenesis in male mouse; assay type: toxicity, organism-based, CB6F1-TGrasH2, Testis; details: in vivo, 672 h
[15] = AUC(0-24h) of aliskiren hemifumarate following 2 week oral dosing of aliskiren hemifumarate at 100 mg.Kg-1 level studied on day 1 in female Callithrix jacchus; assay type: ADME, organism-based; details: marmoset, plasma
[16] = Cmaxspec of aliskiren hemifumarate following 2 week oral dosing of aliskiren hemifumarate at 100 mg.Kg-1 level studied on day 14 in male Callithrix jacchus; assay type: ADME, organism-based, Plasma; details: marmoset, in vivo, 336 h

`COCCCOc1cc(C[C@@H](C[C@H](N)[C@@H](O)C[C@H](C(=O)NCC(C)(C)C(N)=O)C(C)C)C(C)C)ccc1OC` gave a Compound recovery [1] of 2.3% and a CL/F [2] of 5350 mL/min.
Compound `COCCCOc1cc(C[C@@H](C[C@H](N)[C@@H](O)C[C@H](C(=O)NCC([14CH3])([14CH3])C(N)=O)C(C)C)C(C)C)ccc1OC.O=C(O)/C=C/C(=O)O` has a Radiolabel recovery [3] of 2.24%, a Radiolabel recovery [4] of 0.17% and a Radiolabel recovery [5] of 69.96%. The Activity (Cytochrome P450 2E1) was 0.06%, the CL (Cytochrome P450 3A5) was 47 µL·min/nmol and the Absorption [6] was 25%. The Radiolabel recovery [7] was 1.82%, the Radiolabel recovery [8] was 87.94% and the Radiolabel recovery [9] was “OUTCOME = Detected”. The CL (Cytochrome P450 2J2) was 10.6 µL·min/nmol.
Work on `COCCCOc1cc(C[C@@H](C[C@H](N)[C@@H](O)C[C@H](C(=O)NCC(C)(C)C(N)=O)C(C)C)C(C)C)ccc1OC.COCCCOc1cc(C[C@@H](C[C@H](N)[C@@H](O)C[C@H](C(=O)NCC(C)(C)C(N)=O)C(C)C)C(C)C)ccc1OC.O=C(O)/C=C/C(=O)O` [ALISKIREN FUMARATE] yielded an AUC at 24 h [10] of 109000 ng·h/mL, a Plasma clearance [11] of 1.2 L·h/kg and a Tmax [12] of 2.1 h. The CREAT_CHANGE_BY [13] was 130%, the Change in spermatogenesis [14] was “OUTCOME = No abnormalities. No animals died during the study” and the AUC(0-t) at 24 h [15] was 84000 ng·h/mL. For the same compound, the Cmax normalised [16] was 0.097 (ug/ml)/(mg/kg).

Reference: ChEMBL document CHEMBL3508693 (2016)
